Measured values from paper PMC12396409, “Screening and hit evaluation of a microbial metabolite library against the pathogenic Plasmodium falciparum and Toxoplasma gondii parasites” (International Journal for Parasitology: Drugs and Drug …, 2025).
Like-named read-outs stand apart in the source and are kept apart here.

Columns and labels:
[1] = test system: P. falciparum 3D7 parasites; test: P. falciparum growth inhibition assay, 1-cycle (72 h treatment), SYBR DNA staining (library screen at 2 μg/mL and dose-response); type: cell-based, Plasmodium falciparum; details: for Pf_72h_%Growth_Rep1 / Pf_72h_%Growth_Rep2 / activity at 2 µg/mL: 72 h; for activity at 2 µg/mL: Plasmodium falciparum
[2] = test system: T. gondii RH strain (RH-Tub-eYFP) tachyzoites; test: microbe, parasite or virus in culture; type: cell-based, Toxoplasma gondii; details: 72 h; for percent parasite growth at 2 µg/mL: Toxoplasma gondii
[3] = test system: P. falciparum 3D7 parasites; test: P. falciparum growth inhibition assay, 2-cycle (120 h treatment), delayed-death screen and dose-response; type: cell-based, Plasmodium falciparum; details: 120 h; for activity at 2 µg/mL: Plasmodium falciparum
[4] = library screen at 2 μg/mL, % growth, replicate 1
[5] = library screen at 2 μg/mL, % growth, replicate 2
[6] = P. falciparum, screen at 2 μg/mL, replicate 1
[7] = P. falciparum, screen at 2 μg/mL, replicate 2
[8] = T. gondii, screen at 2 μg/mL, replicate 1
[9] = T. gondii, screen at 2 μg/mL, replicate 2
[10] = T. gondii, 2 μg/mL, values are growth (% of control)
[11] = library screen at 2 μg/mL, % growth, replicate 1, read-out: Tg_72h_%Growth_Rep1
[12] = library screen at 2 μg/mL, % growth, replicate 2, read-out: Tg_72h_%Growth_Rep2

## Cc1c2c(c(O)c3c(O)ccc(Cl)c13)C(=O)C1(O)C(O)=C(C(N)=O)C(=O)C(N(C)C)C1C2.Cl (stereo not shown)
[1]; [4]
  Pf_72h_%Growth_Rep1: 85.99%
[1]; [5]
  Pf_72h_%Growth_Rep2: 99.34%
[2]; [4]
  Tg_72h_%Growth_Rep1: 119.39%
[2]; [5]
  Tg_72h_%Growth_Rep2: 96.29%
[3]; [4]
  Pf_120h_%Growth_Rep1: 95.25%
[3]; [5]
  Pf_120h_%Growth_Rep2: 115.61%

## C[C@H]1C(=O)N2c3ccccc3[C@@]3(O)C[C@@H](n4cnc5ccccc5c4=O)C(=O)N1[C@@H]23 [Chaetominine]
[1]; [6]
  Pf_72h_%Growth_Rep1: 81.47%
[1]; [7]
  Pf_72h_%Growth_Rep2: 84.79%
[2]; [8]
  Tg_72h_%Growth_Rep1: 140.61%
[2]; [9]
  Tg_72h_%Growth_Rep2: 97.41%
[3]; [6]
  Pf_120h_%Growth_Rep1: 101.17%
[3]; [7]
  Pf_120h_%Growth_Rep2: 95.94%

## C[C@@H]1CCCCCCCCC[C@H](OC(=O)CCC(=O)O)C(=O)/C=C/C(=O)O1 [A 26771B]
[1]; [4]
  Pf_72h_%Growth_Rep1: 82.59%
[1]; [5]
  Pf_72h_%Growth_Rep2: 86.99%
[2]; [4]
  Tg_72h_%Growth_Rep1: 90.42%
[2]; [5]
  Tg_72h_%Growth_Rep2: 102.55%
[3]; [4]
  Pf_120h_%Growth_Rep1: 86.96%
[3]; [5]
  Pf_120h_%Growth_Rep2: 89.23%

## C/C=C(\NC(=O)c1csc(-c2csc(-c3ccc4c(n3)-c3csc(n3)[C@H]([C@@H](C)O)NC(=O)c3csc(n3)[C@H](C(C)(C)O)NC(=O)c3csc(n3)/C(=C/C)NC(=O)[C@H]([C@@H](C)O)NC(=O)c3csc-4n3)n2)n1)C(=O)NC[C@@H](C)O [Thiocillin I]
[1]; 3D7, 72 h treatment, mean ± S.D., n ≥ 3, read-out: IC50 (μM), P. falciparum
  IC50: 0.08 ± 0.008 µM
[1]; 72 h treatment, read-out: IC50, P. falciparum
  IC50: < 0.2 µM
[1]; [6]
  Pf_72h_%Growth_Rep1: 5.41%
[1]; [7]
  Pf_72h_%Growth_Rep2: -2.25%
[2]; [8]
  Tg_72h_%Growth_Rep1: 86.81%
[2]; [9]
  Tg_72h_%Growth_Rep2: 86.09%
[3]; [6]
  Pf_120h_%Growth_Rep1: 9.85%
[3]; [7]
  Pf_120h_%Growth_Rep2: 7.39%

## CO[C@H]1\C=C/C=C\C=C/C[C@H](OC(=O)[C@@H](C)NC(=O)C2CCCCC2)[C@H](C)[C@@H](O)/C(C)=C\CCc2cc(O)cc(c2O)NC(=O)C1 [Ansatrienin B]
[1]; [4]
  Pf_72h_%Growth_Rep1: 4.68%
[1]; [5]
  Pf_72h_%Growth_Rep2: 7.24%
[2]; [4]
  Tg_72h_%Growth_Rep1: 19.16%
[2]; [5]
  Tg_72h_%Growth_Rep2: 11.14%
[3]; [4]
  Pf_120h_%Growth_Rep1: -0.38%
[3]; [5]
  Pf_120h_%Growth_Rep2: 4.42%

## CCCC[C@H]1C(=O)O[C@H](C)[C@H](NC(=O)c2cccc(NC=O)c2O)C(=O)O[C@@H](C)[C@@H]1OC(=O)CC(C)C [Antimycin A3]
[1]; 3D7, 72 h, library screen at 2 μg/mL, % growth, replicate 1, read-out: Pf_72h_%Growth_Rep1
  activity at 2 µg/mL: 47.1%
[1]; 3D7, 72 h, library screen at 2 μg/mL, % growth, replicate 2, read-out: Pf_72h_%Growth_Rep2
  activity at 2 µg/mL: 38.8%
[2]; T. gondii, 2 μg/mL, mean of both replicates, growth (% of control)
  Mean: 21.56
[2]; [10]
  Replicate 1: 30.27
  Replicate 2: 12.84
[2]; [11]
  percent parasite growth at 2 µg/mL: 30.3%
[2]; [12]
  percent parasite growth at 2 µg/mL: 12.8%
[3]; 3D7, 120 h, library screen at 2 μg/mL, % growth, replicate 1, read-out: Pf_120h_%Growth_Rep1
  activity at 2 µg/mL: 45.4%
[3]; 3D7, 120 h, library screen at 2 μg/mL, % growth, replicate 2, read-out: Pf_120h_%Growth_Rep2
  activity at 2 µg/mL: 32%

## COC(=O)c1cc(O)cc(OC)c1Oc1cc(C)cc(O)c1C(=O)O [Asterric Acid]
[1]; 3D7, library screen at 2 μg/mL, % growth, replicate 1, read-out: Pf_72h_%Growth_Rep1
  activity at 2 µg/mL: 98.8%
[1]; 3D7, library screen at 2 μg/mL, % growth, replicate 2, read-out: Pf_72h_%Growth_Rep2
  activity at 2 µg/mL: 86.1%
[2]; [11]
  percent parasite growth at 2 µg/mL: 79.1%
[2]; [12]
  percent parasite growth at 2 µg/mL: 94.1%
[3]; 3D7, library screen at 2 μg/mL, % growth, replicate 1, read-out: Pf_120h_%Growth_Rep1
  activity at 2 µg/mL: 145%
[3]; 3D7, library screen at 2 μg/mL, % growth, replicate 2, read-out: Pf_120h_%Growth_Rep2
  activity at 2 µg/mL: 103%

## CO[C@H]1C[C@H](O[C@H]2[C@H](C)O[C@@H](O[C@@H]3/C(C)=C/C[C@@H]4C[C@@H](C[C@]5(C=C[C@H](C)[C@@H](C6CCCCC6)O5)O4)OC(=O)[C@H]4C=C(C)[C@@H](O)[C@H]5OC/C(=C\C=C\[C@@H]3C)[C@@]45O)C[C@@H]2OC)O[C@@H](C)[C@@H]1O [Doramectin, epi-]
[1]; [4]
  Pf_72h_%Growth_Rep1: 8.06%
[1]; [5]
  Pf_72h_%Growth_Rep2: 18.63%
[2]; [4]
  Tg_72h_%Growth_Rep1: 72.64%
[2]; [5]
  Tg_72h_%Growth_Rep2: 83.42%
[3]; [4]
  Pf_120h_%Growth_Rep1: -3.39%
[3]; [5]
  Pf_120h_%Growth_Rep2: 23.35%

## C/C=C/C[C@@H](C)[C@@H](O)[C@H]1C(=O)N[C@@H](CC)C(=O)N(C)CC(=O)N(C)[C@@H](CC(C)C)C(=O)N[C@@H](C(C)C)C(=O)N(C)[C@@H](CC(C)C)C(=O)N[C@@H](C)C(=O)N[C@H](C)C(=O)N(C)[C@@H](CC(C)C)C(=O)N(C)[C@@H](CC(C)C)C(=O)N(C)[C@H](C(C)C)C(=O)N1C [Cyclosporin H]
[1]; [6]
  Pf_72h_%Growth_Rep1: 6.54%
[1]; [7]
  Pf_72h_%Growth_Rep2: 2.27%
[2]; [8]
  Tg_72h_%Growth_Rep1: 148.50%
[3]; [6]
  Pf_120h_%Growth_Rep1: 5.94%
[3]; [7]
  Pf_120h_%Growth_Rep2: 7.89%
